These results are taken from the supplement of paper PMC11061612.

What all share (experiment): combination Emax (second highest fraction inhibited in the dose matrix, 72 h); higher = more inhibition; extreme values may be limits of the assay
For assay [1], the system named is BE2-M17 (Neuroblastoma). Put shortly:
(§1)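 Cell lines in DMEM/F12 or RPMI with 10% FBS were plated in 1536-well plates, held 24 hours at 37°C, 5% CO2, then given two-drug dose matrices for 72 hours (DMSO typically 0.2%). Viability was read by CellTiter-Glo 2.0 luminescence and scaled as inhibition from 0 (vehicle wells) to 1 (blank wells). Combination Emax is the second-highest inhibition in the matrix; Bliss excess is observed combination effect minus expected EA + EB − EA·EB, EA and EB being single-agent effects.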

Assay [2] relates to CAL-72 (Osteosarcoma). Put shortly: as §1
Assay [3] deals with Detroit562 (Head and Neck Carcinoma). In outline: as §1
The test system of assay [4] is EW-11 (Ewing's Sarcoma). In outline:
as §1

Assay [5] deals with FTC-133 (Thyroid Gland Carcinoma). Put shortly: as §1
For assay [6], the system named is HH (T-Cell Non-Hodgkin's Lymphoma). Put shortly: as §1
In assay [7] the test system is HeLa (Cervical Carcinoma). In outline:
as §1

Assay [8] concerns Hs-746T (Gastric Carcinoma). Put shortly:
as §1

The test system of assay [9] is KS-1 (Glioblastoma). In outline: as §1
For assay [10], the system named is LCLC-97TM1 (Non-Small Cell Lung Carcinoma). Put shortly: as §1
Assay [11] relates to LNZTA3WT4 (Low Grade Glioma). Put shortly: as §1
Assay [12] relates to LOXIMVI (Melanoma). Put shortly:
as §1

Assay [13] has as its system LS-123 (Colorectal Carcinoma). Put shortly:
as §1

The test system of assay [14] is MPP-89 (Mesothelioma). Put shortly:
as §1

For assay [15], the system named is NCI-H2052 (Mesothelioma). Put shortly:
as §1

Assay [16] deals with NCI-H2722 (Mesothelioma). In outline:
as §1

In assay [17] the test system is SNU-16 (Gastric Carcinoma). In outline:
as §1

Assay [18] relates to SW1573 (Lung Adenocarcinoma). In outline: as §1
The test system of assay [19] is SW1710 (Bladder Carcinoma). Put shortly: as §1
Assay [20] has as its system TGBC1TKB (Biliary Tract Carcinoma). Put shortly: as §1

Consider `C[C@@H](c1ccc2nccn2c1)n1nnc2ncc(-c3cnn(C)c3)nc21` [Savolitinib] + Cc1c2c(nn1C)CSCc1cc(n(C)n1)CSc1cc(c3ccccc3c1)OCCCc1c(C(=O)O)n(C)c3c-2c(Cl)ccc13 [AZD5991] (first compound max 1 µM, 7x7, partner max 1 µM), for which the “combination Emax” value in [1] is 0.129; in [2] it was 0.189; in [3] it was 0.26; in [4], 0.491; in [5], 0.176; in assay [6], 0.879. For the same compound, the “combination Emax” value in assay [7] amounted to 0.362; in [8], 0.652; in assay [9] it was 0.132; in assay [10], 0.147; in assay [11], 0.222; in assay [12] it was 0.228. Further, the “combination Emax” value in [13] was 0.211; in assay [14], 0.237; in assay [15] it was 0.185; in assay [16], 0.2; in assay [17] it was 0.947; in assay [18], 0.133. Further, the “combination Emax” value in assay [19] was 0.105; in [20], 0.159.
For the compound `COc1cc2c(cc1OCCCCCOc1cc3c(cc1OC)C(=O)N1C=C(C)C[C@H]1C=N3)N=C[C@@H]1CC(C)=CN1C2=O` [SG3199] + O=C(c1cc(Cc2n[nH]c(=O)c3ccccc23)ccc1F)N1CCN(C(=O)C2CC2)CC1 [Olaparib] (first compound max 0.001 µM, 7x7, partner max 10 µM), the “combination Emax” value in assay [1] is 0.299; in assay [2] it was 0.23; in assay [3], 0.175; in [4], 0.582; in assay [5] it was 0.134; in assay [6] it was 0. The “combination Emax” value in [7] was found to be 0.159; in assay [8], 0.292; in [9] it was 0.127; in [10], 0.12; in assay [11] it was 0.0132; in assay [12] it was 0.187. The “combination Emax” value in assay [13] stood at 0.187; in assay [14] it was 0.0885; in assay [15], 0.0807; in assay [16], 0.134; in assay [17] it was 0.363; in [18] it was 0.102. Also, the results for the “combination Emax” value in assay [19] and in [20] were 0.112 and 0.0857, respectively.
Take `C[C@@H](c1ccc2nccn2c1)n1nnc2ncc(-c3cnn(C)c3)nc21` [Savolitinib] + CC1(C)CCC(CN2CCN(c3ccc(C(=O)NS(=O)(=O)c4ccc(NCC5CCOCC5)c([N+](=O)[O-])c4)c(Oc4cnc5[nH]ccc5c4)c3)CC2)=C(c2ccc(Cl)cc2)C1 [Venetoclax] (first compound max 1 µM, 7x7, partner max 1 µM): the “combination Emax” value is 0.0964 in assay [1]; 0.181 in assay [2]; 0.0649 in [3]; 0.213 in assay [4]; 0.17 in assay [5]; 0.134 in assay [6]. Moreover, the “combination Emax” value in [7] worked out at 0.147; in assay [8], 0.664; in [9], 0.152; in assay [10], 0.0631; in assay [11], 0.162; in assay [12], 0.232. Besides, the “combination Emax” value in assay [13] was determined as 0.148; in assay [14] it was 0.261; in assay [15], 0.121; in [16], 0.159; in [17], 0.129; in assay [18], 0.052. The “combination Emax” value amounted to 0.0997 in assay [19] and 0.144 in assay [20].
As for `Cc1cc2ncnn2cc1Nc1ncc2c(n1)n(C1CCOCC1)c(=O)n2C` [AZD7648] + CN(C)CCCOc1ccc(-c2ccc3ncc4c(c3c2)n(C2CCOCC2)c(=O)n4C)cn1 [AZD0156] (first compound max 10 µM, 7x7, partner max 1 µM), the “combination Emax” value was 0.283 in assay [1]; 0.399 in [2]; 0.419 in assay [3]; 0.549 in assay [4]; 0.241 in assay [5]; 0.285 in assay [6]. The “combination Emax” value in [7] was 0.204; in assay [8] it was 0.36; in [9], 0.245; in assay [10] it was 0.159; in assay [11] it was 0.276; in assay [12] it was 0.478. Also, the “combination Emax” value in assay [13] amounted to 0.34; in assay [14], 0.302; in [15], 0.428; in [16], 0.209; in assay [17], 0.239; in assay [18], 0.164. The “combination Emax” value in [19] came to 0.217; in assay [20] it was 0.398.
Turning to `Cc1nc(Nc2ncc(C(=O)Nc3c(C)cccc3Cl)s2)cc(N2CCN(CCO)CC2)n1` [Dasatinib] + CC(=O)Nc1cccc(-n2c(=O)n(C3CC3)c(=O)c3c(Nc4ccc(I)cc4F)n(C)c(=O)c(C)c32)c1 [Trametinib] (first compound max 2 µM, 7x7, partner max 1 µM), the “combination Emax” value in [1] is 0.868; in [2] it was 0.545; in assay [3], 0.862; in assay [4], 0.157; in assay [5], 0.261; in assay [6], 0.216. For the same compound, the “combination Emax” value in assay [7] is 0.241; in [8], 0.746; in assay [9], 0.641; in [10], 0.904; in [11] it was 0.329; in assay [12] it was 1. Further, the “combination Emax” value in assay [13] worked out at 0.928; in [14], 0.851; in assay [15], 0.558; in assay [16], 0.487; in [17] it was 0.532; in [18] it was 0.18. The “combination Emax” value in assay [19] was determined as 0.77; in assay [20], 0.715.
